# Reference: patent publication US4297279A, “Imidazoledicarboxylic acid derivative” (Ajinomoto Co., Inc., priority 1979, dated 1981)
# Where a name gives a salt, the structure may show the parent alone.
# Tested on: Pseudomonas aeruginosa AJ 2116
# Experiment: Minimum Inhibitory Concentration (MIC) against Pseudomonas aeruginosa AJ 2116 in culture
# Format: cell-based
# Conditions: not given
# Description: Comparative Minimun Inhibitory Concentrations (MIC) (the minimum concentration of the compound in micrograms per milliliter required to inhibit the growth of the test organism in a culture) obtained using Pseudomonas aeruginosa AJ 2116 as the test organism, are presented in Table 2.
row,MIC (minimum concentration of the compound required to inhibit the growth of the test organism in a culture),Compound
1,50 µg/mL,"CC(=O)OCC1=C(C(=O)O)N2C(=O)[C@@H](NC(=O)[C@H](NC(=O)c3[nH]cnc3C(=O)O)c3ccccc3)C2SC1 (stereo partly drawn) [Example 3a, 7-β-[D(-)-α-(4-carboxyimidazole-5-carboxamido)phenylacetamido]cephalosporanic acid]"

# Same assay, conditions: AJ2116, read-out: MIC (minimum concentration of the compound required to inhibit the growth of the test organism in a culture)
row,Compound,MIC
1,"Cn1nnnc1SCC1=C(C(=O)O)N2C(=O)[C@@H](NC(=O)[C@H](NC(=O)c3nc[nH]c3C(=O)O)c3ccccc3)[C@H]2SC1 [Example 4, 7-β-[D-(-)-α-(4-carboxyimidazole-5-carboxamido)phenylacetamido]-3-[[(1-methyl-1H-tetrazol-5-yl)thio]methyl]-3-cephem-4-carboxylic acid monohydrate]",50 µg/mL
2,"O=C([O-])C1=C(C[n+]2ccc(CCS(=O)(=O)O)cc2)CS[C@@H]2[C@H](NC(=O)[C@H](NC(=O)c3nc[nH]c3C(=O)O)c3ccccc3)C(=O)N12 [Example 5, 7-β-[D-(-)-α-(4-carboxyimidazole-5-carboxamido)phenylacetamido]-3-(4-α-sulphoethylpyridiniummethyl-3-cephem-4-carboxylic acid disodium salt trihydrate]",12.5 µg/mL
3,"O=C(O)Cc1ccc[n+](CC2=C(C(=O)[O-])N3C(=O)[C@@H](NC(=O)[C@H](NC(=O)c4nc[nH]c4C(=O)O)c4ccccc4)[C@H]3SC2)c1 [Example 6, disodium salt]",12.5 µg/mL
4,"CC1(C)S[C@@H]2[C@H](NC(=O)C(C(=O)O)c3ccccc3)C(=O)N2[C@H]1C(=O)O (stereo partly drawn) [Carbenicillin, reference compound]",100 µg/mL
5,"CC1(C)S[C@@H]2[C@H](NC(=O)[C@H](N)c3ccccc3)C(=O)N2[C@H]1C(=O)O [Ampicillin, reference compound]",> 500 µg/mL

# The remaining lines, values ahead:
row,MIC,Compound
1,12.5 µg/mL,"CC1(C)S[C@@H]2[C@H](NC(=O)[C@H](NC(=O)c3nc[nH]c3C(=O)O)c3ccc(O)cc3)C(=O)N2[C@H]1C(=O)O [Example 3c, D-α-(4-carboximidazole-5-carboxamido)-p-hydroxybenzylpenicillin monohydrate]"
2,50 µg/mL,"CC(=O)OCC1=C(C(=O)O)N2C(=O)[C@@H](NC(=O)[C@H](NC(=O)c3nc[nH]c3C(=O)O)c3ccc(O)cc3)[C@H]2SC1 [Example 3d, 7-β-[D(-)-α-(4-carboxyimidazole-5-carboxamido)-p-hydroxyphenylacetamido]cephalosporanic acid]"
3,12.5 µg/mL,"CC1(C)S[C@@H]2[C@H](NC(=O)[C@H](NC(=O)c3nc[nH]c3C(=O)O)c3ccccc3)C(=O)N2[C@H]1C(=O)O [Example 3b, D-α-(4-carboxyimidazole-5-carboxamido)benzylpenicillin]"
